Experimental data as given in the supplement of paper PMC6045584.
± gives the standard deviation of the averaged measurements.

Legend:
[1] = compound: C[C@H](CN(C)C)Oc1nc(Nc2cc3cccc(Cl)c3cn2)cnc1C#N; test: surviving fraction relative to DMSO-only wells; higher = less growth inhibition; settings: exposure time: 5 days
In short: (§1)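 At 250–500 cells per well in 384-well plates, log-phase tumour cell lines were seeded and, 24 hours on, exposed continuously for five days to inhibitors at 0.5, 1, 5, 10, 50, 100, 500 and 1000 nM. Viability readout was CellTiter-Glo luminescence, reported as surviving fraction normalised to the median of DMSO-only wells.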

CABOZANTINIB = compound: COc1cc2nccc(Oc3ccc(NC(=O)C4(C(=O)Nc5ccc(F)cc5)CC4)cc3)c2cc1OC [CABOZANTINIB]; test: as above; settings: exposure time: 5 days
In short: as §1

| Test System | surviving fraction ([1]; 0.5 nM) | surviving fraction ([1]; 1 nM) | surviving fraction ([1]; 5 nM) | surviving fraction ([1]; 10 nM) | surviving fraction ([1]; 50 nM) | surviving fraction ([1]; 100 nM) | surviving fraction ([1]; 500 nM) | surviving fraction ([1]; 1000 nM) | surviving fraction (CABOZANTINIB; 0.5 nM) | surviving fraction (CABOZANTINIB; 1 nM) | surviving fraction (CABOZANTINIB; 5 nM) | surviving fraction (CABOZANTINIB; 10 nM) | surviving fraction (CABOZANTINIB; 50 nM) | surviving fraction (CABOZANTINIB; 100 nM) | surviving fraction (CABOZANTINIB; 500 nM) | surviving fraction (CABOZANTINIB; 1000 nM) |
| --- | --- | --- | --- | --- | --- | --- | --- | --- | --- | --- | --- | --- | --- | --- | --- | --- |
| CASKI CERVIX | 0.839 ± 0.052 | 0.909 ± 0.086 | 0.959 ± 0.032 | 0.922 ± 0.02 | 1.009 ± 0.01 | 0.9417 ± 0.0087 | 0.217 ± 0.011 | 0.12 ± 0.01 | 0.969 ± 0.021 | 0.914 ± 0.05 | 0.942 ± 0.021 | 0.907 ± 0.063 | 0.959 ± 0.031 | 0.907 ± 0.021 | 0.953 ± 0.038 | 0.768 ± 0.027 |
| SUM149.B1*.S BREAST | 1.06 ± 0.066 | 1.06 ± 0.023 | 1.03 ± 0.055 | 1.09 ± 0.029 | 1.11 ± 0.029 | 1.05 ± 0.029 | 0.941 ± 0.026 | 0.492 ± 0.024 | 1.03 ± 0.07 | 1.02 ± 0.034 | 0.998 ± 0.046 | 1.04 ± 0.025 | 1.039 ± 0.0013 | 0.979 ± 0.037 | 0.992 ± 0.029 | 0.967 ± 0.021 |
| 143B BONE | 0.939 ± 0.1 | 1.08 ± 0.053 | 1.08 ± 0.035 | 1.05 ± 0.012 | 1.026 ± 0.0092 | 1.05 ± 0.024 | 0.519 ± 0.031 | 0.078 ± 0.021 | 1.07 ± 0.08 | 1.03 ± 0.023 | 1.02 ± 0.013 | 1.05 ± 0.02 | 1.01 ± 0.038 | 1.09 ± 0.059 | 1.048 ± 0.0092 | 1.06 ± 0.031 |
| MDAMB436 BREAST | 0.927 ± 0.072 | 0.927 ± 0.15 | 0.963 ± 0.14 | 0.959 ± 0.13 | 0.953 ± 0.11 | 0.808 ± 0.14 | 0.641 ± 0.1 | 0.451 ± 0.077 | 0.95 ± 0.067 | 0.94 ± 0.04 | 1 ± 0.17 | 0.973 ± 0.029 | 1.04 ± 0.096 | 0.951 ± 0.097 | 1.04 ± 0.058 | 1.02 ± 0.11 |
| SNU475 LIVER | 0.989 ± 0.036 | 1.03 ± 0.019 | 1 ± 0.039 | 1.037 ± 0.005 | 1.02 ± 0.044 | 0.972 ± 0.04 | 0.968 ± 0.024 | 0.918 ± 0.024 | 1 ± 0.033 | 0.972 ± 0.049 | 0.987 ± 0.031 | 0.991 ± 0.053 | 1 ± 0.012 | 0.985 ± 0.048 | 0.923 ± 0.023 | 0.876 ± 0.021 |
| HELA CERVIX | 1.01 ± 0.019 | 1.03 ± 0.043 | 0.999 ± 0.058 | 0.988 ± 0.079 | 1.11 ± 0.037 | 1.07 ± 0.048 | 1.09 ± 0.085 | 0.831 ± 0.029 | 1.01 ± 0.028 | 0.98 ± 0.021 | 0.999 ± 0.033 | 0.955 ± 0.042 | 1.08 ± 0.036 | 1.06 ± 0.05 | 1.11 ± 0.088 | 1.1 ± 0.028 |
| 93VU HEADNECK | 0.995 ± 0.04 | 1.04 ± 0.079 | 1.04 ± 0.06 | 1.09 ± 0.039 | 1.03 ± 0.11 | 1.14 ± 0.1 | 0.865 ± 0.066 | 0.976 ± 0.09 | 0.824 ± 0.084 | 0.841 ± 0.026 | 0.916 ± 0.028 | 1.01 ± 0.14 | 1.02 ± 0.084 | 0.967 ± 0.05 | 0.777 ± 0.042 | 0.71 ± 0.051 |
| ZR751 BREAST | 1.07 ± 0.13 | 1.07 ± 0.085 | 1.08 ± 0.17 | 0.991 ± 0.078 | 0.867 ± 0.13 | 0.909 ± 0.15 | 0.543 ± 0.082 | 0.587 ± 0.042 | 0.87 ± 0.067 | 1.02 ± 0.013 | 1.05 ± 0.083 | 0.995 ± 0.032 | 1.04 ± 0.12 | 1.03 ± 0.086 | 1.07 ± 0.081 | 1.03 ± 0.087 |
| S68 BREAST | 0.922 ± 0.12 | 1.07 ± 0.076 | 1.15 ± 0.062 | 0.966 ± 0.065 | 0.874 ± 0.14 | 0.652 ± 0.052 | 0.153 ± 0.0038 | 0.114 ± 0.0055 | 1.05 ± 0.1 | 0.948 ± 0.075 | 0.937 ± 0.071 | 1.32 ± 0.15 | 1.2 ± 0.23 | 1.24 ± 0.41 | 0.986 ± 0.24 | 0.889 ± 0.23 |
| SCC003 HEADNECK | 1.04 ± 0.09 | 1.06 ± 0.022 | 1.06 ± 0.055 | 1.05 ± 0.054 | 1.05 ± 0.079 | 1.1 ± 0.018 | 0.848 ± 0.011 | 0.97 ± 0.12 | 0.921 ± 0.063 | 0.878 ± 0.055 | 0.97 ± 0.02 | 0.965 ± 0.047 | 1.08 ± 0.011 | 1.04 ± 0.029 | 0.98 ± 0.03 | 0.936 ± 0.1 |
| RDES SOFT TISSUE | 1.28 ± 0.031 | 1.37 ± 0.031 | 1.3 ± 0.14 | 1.2 ± 0.12 | 1.17 ± 0.086 | 1.32 ± 0.041 | 1.33 ± 0.1 | 1.38 ± 0.13 | 1.2 ± 0.077 | 1.09 ± 0.1 | 1.21 ± 0.064 | 1.13 ± 0.083 | 1.23 ± 0.12 | 1.09 ± 0.076 | 1.1 ± 0.03 | 1.22 ± 0.22 |
| VCAP PROSTATE | 0.969 ± 0.098 | 1.03 ± 0.14 | 1.1 ± 0.11 | 1.08 ± 0.11 | 1.12 ± 0.033 | 1.01 ± 0.16 | 0.715 ± 0.12 | 0.35 ± 0.039 | 0.921 ± 0.16 | 1.01 ± 0.046 | 1.05 ± 0.037 | 0.996 ± 0.07 | 1.06 ± 0.043 | 1.026 ± 0.004 | 0.992 ± 0.065 | 0.871 ± 0.056 |
| SG43 HEADNECK | 0.863 ± 0.068 | 0.929 ± 0.058 | 0.961 ± 0.13 | 0.933 ± 0.091 | 0.729 ± 0.078 | 0.585 ± 0.08 | 0.692 ± 0.082 | 0.91 ± 0.18 | 0.887 ± 0.051 | 0.863 ± 0.15 | 0.883 ± 0.019 | 0.788 ± 0.11 | 0.759 ± 0.18 | 0.737 ± 0.2 | 0.757 ± 0.056 | 0.708 ± 0.072 |
| CHLA90 AUTONOMIC GANGLIA | 0.977 ± 0.064 | 0.961 ± 0.058 | 0.913 ± 0.041 | 0.912 ± 0.034 | 0.94 ± 0.048 | 0.904 ± 0.075 | 0.46 ± 0.084 | 0.236 ± 0.048 | 0.917 ± 0.024 | 0.936 ± 0.052 | 0.9 ± 0.065 | 0.863 ± 0.016 | 0.913 ± 0.023 | 0.907 ± 0.072 | 0.868 ± 0.11 | 0.856 ± 0.097 |
| NY BONE | 0.9707 ± 0.0081 | 0.948 ± 0.042 | 1.01 ± 0.026 | 1.01 ± 0.015 | 1 ± 0.029 | 0.854 ± 0.06 | 0.119 ± 0.0045 | 0.0907 ± 0.0051 | 0.9253 ± 0.009 | 0.98 ± 0.036 | 1.02 ± 0.016 | 0.989 ± 0.024 | 0.9377 ± 0.0067 | 0.887 ± 0.011 | 0.784 ± 0.022 | 0.768 ± 0.026 |
| SCC36 HEADNECK | 1.05 ± 0.03 | 1.07 ± 0.038 | 0.991 ± 0.065 | 1.15 ± 0.055 | 1.07 ± 0.041 | 1.13 ± 0.042 | 0.427 ± 0.053 | 0.313 ± 0.017 | 1.03 ± 0.092 | 0.961 ± 0.074 | 1.09 ± 0.066 | 1.02 ± 0.032 | 1.1 ± 0.09 | 1.07 ± 0.073 | 1.07 ± 0.11 | 0.88 ± 0.081 |
| SUM159 BREAST | 1.04 ± 0.038 | 1.06 ± 0.034 | 1.05 ± 0.03 | 1.05 ± 0.033 | 1.06 ± 0.024 | 1.05 ± 0.024 | 1.03 ± 0.02 | 0.986 ± 0.0078 | 1.02 ± 0.03 | 1.02 ± 0.028 | 1.01 ± 0.026 | 1.01 ± 0.036 | 1 ± 0.025 | 1.01 ± 0.034 | 0.986 ± 0.036 | 0.977 ± 0.025 |
| HCC1954 BREAST | 1.14 ± 0.11 | 1.24 ± 0.018 | 1.32 ± 0.023 | 1.11 ± 0.15 | 1.35 ± 0.051 | 1.04 ± 0.024 | 0.48 ± 0.072 | 0.242 ± 0.02 | 0.955 ± 0.018 | 1.04 ± 0.02 | 1.03 ± 0.13 | 1.02 ± 0.16 | 1.1 ± 0.073 | 0.921 ± 0.0035 | 1.0215 ± 0.00071 | 1.02 ± 0.055 |
| OS25HAL BONE | 0.972 ± 0.013 | 0.965 ± 0.034 | 1.049 ± 0.0085 | 0.979 ± 0.024 | 1.07 ± 0.057 | 1.09 ± 0.014 | 0.615 ± 0.082 | 0.217 ± 0.023 | 0.957 ± 0.017 | 0.963 ± 0.02 | 1.02 ± 0.021 | 0.93 ± 0.022 | 0.941 ± 0.041 | 0.875 ± 0.029 | 0.8397 ± 0.0068 | 0.806 ± 0.068 |
| HCT15 LARGE INTESTINE | 1.05 ± 0.022 | 1.04 ± 0.05 | 1.04 ± 0.022 | 1.05 ± 0.038 | 1.06 ± 0.051 | 1.06 ± 0.069 | 0.998 ± 0.057 | 0.799 ± 0.11 | 0.952 ± 0.044 | 0.95 ± 0.06 | 0.943 ± 0.044 | 0.951 ± 0.073 | 0.966 ± 0.036 | 1.02 ± 0.037 | 0.994 ± 0.065 | 1.04 ± 0.06 |
| SCC47 HEADNECK | 1.06 ± 0.052 | 1.06 ± 0.091 | 1.06 ± 0.065 | 1.11 ± 0.054 | 1.14 ± 0.059 | 1.12 ± 0.1 | 0.671 ± 0.049 | 0.925 ± 0.0085 | 0.891 ± 0.022 | 0.894 ± 0.019 | 1.06 ± 0.062 | 1.03 ± 0.16 | 1.05 ± 0.14 | 1.08 ± 0.069 | 0.844 ± 0.025 | 0.922 ± 0.041 |
